Experimental data: patent US11254670B2 (NUVATION BIO INC., priority 2019, dated 2022)

How the values were obtained:
[1] = target: adenosine A2a (human) membrane (Homo sapiens (Human), UniProt P29274); assay: A2A adenosine receptor radioligand binding assay ([3H] CGS-21680); settings: radioligand [3H] CGS-21680 6 nM
Description: A second A2A adenosine receptor radioligand binding assay protocol was used. The protocol used adenosine A2a (human) membrane (PerkinElmer RBHA2AM400UA) at a concentration of 5 μg/well/100 μl and the radioligand [3H] CGS-21680 (Cat No. PerkinElmer-NET1021250UC) at a final concentration of 6 nM. Testing compounds were diluted with DMSO to make 8-point 4-fold serial dilution, starting at 0.2 mM. CGS-15943 was the reference compound. 1 μl of compounds/high control/low control was transferred to the assay plate according to a plate map, followed by 100 μl of membrane stocks and 100 μl of radioligand, in assay buffer (50 mM Tris-HCl, 10 mM MgCl2, 1 mM EDTA, pH 7.4). The plate was sealed and incubated at RT for 2 hours. Unifilter-96 GF/C filter plates (Perkin Elmer Cat #6005174) were soaked with 50 μl of 0.3% PEI per well for at least 0.5 hour at room temperature. When the binding assays were completed, the reaction mixtures were filtered through GF/C plates using Perkin Elmer Filtermate Harvester, and each plate washed 4 times with cold wash buffer (50 mM Tris-HCl, 154 mM NaCl, pH 7.4). The filter plates were dried for 1 hour at 50 degrees. After drying, the bottom of the filter plate wells was sealed, 50 μl of Perkin Elmer Microscint 20 cocktail was added, and the top of the filter plate was sealed. ^3H trapped on the filter was counted using Perkin Elmer MicroBeta2 Reader. The data were analyzed with GraphPad Prism 5 to obtain binding IC50 values. The “Inhibition [% Control]” was calculated using the equation: % Inh=(1−Background subtracted Assay value/Background subtracted HC value)*100, where HC is high control.

[2] = target: adenosine A1 (human) membrane (Homo sapiens (Human), UniProt P30542); assay: A1 adenosine receptor radioligand binding assay ([3H] DPCPX); settings: radioligand [3H] DPCPX 1 nM, compound 200 nM
Sequence of adenosine A1 (human) membrane (P30542 whole entry): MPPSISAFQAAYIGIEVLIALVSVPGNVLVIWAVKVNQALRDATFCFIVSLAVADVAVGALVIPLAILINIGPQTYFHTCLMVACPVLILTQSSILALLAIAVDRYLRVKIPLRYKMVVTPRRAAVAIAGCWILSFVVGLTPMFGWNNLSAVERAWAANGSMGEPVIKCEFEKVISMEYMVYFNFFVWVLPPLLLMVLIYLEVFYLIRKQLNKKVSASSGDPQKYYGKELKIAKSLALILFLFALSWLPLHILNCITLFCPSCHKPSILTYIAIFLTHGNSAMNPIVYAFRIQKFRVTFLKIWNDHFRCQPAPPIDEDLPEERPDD
Description: A second A1 adenosine receptor radioligand binding assay protocol was used. The protocol used adenosine A1 (human) membrane (PerkinElmer ES-010-M400UA) at a concentration of 2.5 μg/well/100 μl and the radioligand [3H] DPCPX (Cat No. PerkinElmer-NET974250UC) at a final concentration of 1 nM. Testing compounds were tested at a final concentration of 200 nM. CGS-15943, the reference compound, was tested in an 8-point 4-fold serial dilution, starting at a top concentration of 1 μM. 1 μl of compounds/high control/low control was transferred to the assay plate according to a plate map, followed by 100 μl of membrane stocks and 100 μl of radioligand, in assay buffer (25 mM HEPES, 5 mM MgCl2, 1 mM CaCl2, 100 mM NaCl, pH 7.4). The plate was sealed and incubated at RT for 1 hour. Unifilter-96 GF/C filter plates (Perkin Elmer Cat #6005174) were soaked with 50 μl of 0.3% PEI per well for at least 0.5 hour at room temperature. When the binding assays were completed, the reaction mixtures were filtered through GF/C plates using Perkin Elmer Filtermate Harvester, and each plate washed 4 times with cold wash buffer (25 mM HEPES, 5 mM MgCl2, 1 mM CaCl2, 100 mM NaCl, pH 7.4). The filter plates were dried for 1 hour at 50 degrees. After drying, the bottom of the filter plate wells was sealed, 50 μl of Perkin Elmer Microscint 20 cocktail was added, and the top of the filter plate was sealed. ^3H trapped on the filter was counted using Perkin Elmer MicroBeta2 Reader. The data were analyzed with GraphPad Prism 5 to obtain binding IC50 values for the reference compound. The “Inhibition [% Control]” was calculated using the equation: % Inh=(1−Background subtracted Assay value/Background subtracted HC value)*100, where HC is high control.

[3] = target: human recombinant adenosine A1 receptor (Homo sapiens (Human), UniProt P30542); assay: cAMP assay (Assay 2), HEK-293 cells expressing A1 receptor; assay type: cell-based
Sequence of human recombinant adenosine A1 receptor (P30542 whole entry): as above
Description: (§1) The functional activity of compounds was tested using Assay 2, below, to detect the presence of cAMP. Assay 1 is an alternative assay for this purpose. Activation of G-protein coupled receptors (such as A2A) results in activation of adenylyl cyclase which converts ATP into cAMP which is used as a downstream signaling molecule. Therefore, molecules which act as GPCR (or specifically A2A receptor) antagonists cause a decrease in intracellular cAMP concentration.
(§2) Assay 2 (Table B2): This assay used HEK-293 cells expressing human recombinant adenosine A2A receptor (or, alternatively, A1 receptor) that were grown prior to the test in media without antibiotic. 100 nL of test articles at 100× of final concentration were transferred to assay plate by Echo. Cells were washed twice with 5 mL of PBS and 10 μL of cells were mixed with 5 mL PBS. After aspirating the PBS and adding 1.5 mL versine, cells were incubated at 37° C. for 2-5 min. After centrifugation, 4 mL of medium was added and adjusted cell density to 5,000 cells/well with Stimulation Buffer. 10 μL of cells were aliquoted to the assay plate, centrifuged at 1000 rpm for 1 minute, and incubated for 60 minutes at room temperature. 5 μL 4× Eu-cAMP tracer solution and 5 μL 4× Ulight™-anti-cAMP solution were added to assay plate, followed by centrifugation and 60-minute incubation at room temperature. Plates were read on EnVision.

[4] = target: human recombinant adenosine A2A receptor (Homo sapiens (Human), UniProt P29274); assay: cAMP assay (Assay 2), HEK-293 cells expressing A2A receptor; assay type: cell-based; settings: HEK-293 cells expressing human recombinant adenosine A2A receptor
Sequence of human recombinant adenosine A2A receptor (P29274 whole entry): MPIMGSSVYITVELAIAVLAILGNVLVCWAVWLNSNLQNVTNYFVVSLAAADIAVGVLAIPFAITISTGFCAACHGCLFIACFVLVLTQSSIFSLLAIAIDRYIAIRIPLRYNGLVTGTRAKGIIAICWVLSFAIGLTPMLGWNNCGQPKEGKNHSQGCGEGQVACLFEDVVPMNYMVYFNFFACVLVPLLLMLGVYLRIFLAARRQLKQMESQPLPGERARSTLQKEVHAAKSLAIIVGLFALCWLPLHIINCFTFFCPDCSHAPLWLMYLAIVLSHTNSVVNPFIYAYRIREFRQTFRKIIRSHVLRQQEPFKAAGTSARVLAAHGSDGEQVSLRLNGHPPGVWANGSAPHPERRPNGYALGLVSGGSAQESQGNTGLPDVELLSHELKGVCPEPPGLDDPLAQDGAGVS
Description: as §1, §2

activated human PBMCs = assay: Human T cell activation assay (TNF-α and IFN-γ ELISA); assay type: cell-based; settings: activated human T cells in vitro, NECA 1 μM or 5 μM
Description: Human T Cell Activation Assay: Fresh human blood was diluted with the same volume of PBS and the buffy coat containing peripheral blood mononuclear cells (PBMCs) were prepared and resuspended in culture medium at a density of 2×10^6/mL. 2×10^5 PBMCs (in 100 μL) were plated to each well of a 96-well flat bottom plate. 25 μL of 8× final concentration of 10-fold serial diluted or single concentration compounds was added to indicated wells and incubated for 30 mins in 37° C./5% CO2. 25 μL of 8× final concentration of NECA (1 μM or 5 μM) was added to selected wells and incubated for 30 min in 37° C./5% CO2. Beads included in T cell activation/expansion kit (Miltenyi biotec Cat #130-091-441) at a bead-to-cell ratio of 1:6 in 50 μL were added to all wells with the final concentration of DMSO at 0.1% and final volume at 200 μL. 60 μL of supernatant post 24 hr and 48 hr incubation was collected for TNF-α and IFN-γ concentration evaluation using TNF-α ELISA ready-set-go kit (eBioscience, Cat #88-7346-77) and IFN-γ ELISA ready-set-go kit (eBioscience, Cat #88-7316-77), respectively.

Sequence of adenosine A2a (human) membrane (P29274 whole entry): as above

Row | Compound | IC50 [1] [nM] | inhibition at 0.2 µM [2] [%] | IC50 [3] [nM] | IC50 [4] [nM] | reversal of NECA-mediated suppression of TNF-α secretion (activated human PBMCs; FIG. 1) | reversal of NECA-mediated suppression of IFN-γ secretion (activated human PBMCs; FIG. 2)
1 | Cc1cc(-c2cc3c(=O)cc[nH]c3nc2-c2cccc(C#N)c2)cc(Cl)n1 [Compound 6, 3-(3-(2-chloro-6-methylpyridin-4-yl)-5-oxo-5,8-dihydro-1,8-naphthyridin-2-yl)benzonitrile] | 113 | 26 |  |  |  | 
2 | CC(C)n1cc(-c2cc3c(=O)cc[nH]c3nc2-c2ccccc2)ccc1=O [Compound 1, 6-(1-isopropyl-6-oxo-1,6-dihydropyridin-3-yl)-7-phenyl-1,8-naphthyridin-4(1H)-one] | 2.6 | 98 | 3.2 | 33.8 | reversed NECA-mediated suppression | reversed NECA-mediated suppression
3 | Cn1cc(-c2cc3c(=O)cc[nH]c3nc2-c2ccccc2)ccc1=O [Compound 76] |  | 92 |  | 156 |  | 
4 | CC(C)n1cc(-c2cc3c(=O)cc[nH]c3nc2-c2ccccc2)cc(Cl)c1=O [Compound 7, 6-(5-chloro-1-isopropyl-6-oxo-1,6-dihydropyridin-3-yl)-7-phenyl-1,8-naphthyridin-4(1H)-one] | 3.5 |  | 5.8 | 11 |  | 
5 | Cn1cc(-c2cc3c(=O)cc[nH]c3nc2-c2ccccc2)cc(Cl)c1=O [Compound 75] |  | 82 |  | 195 |  | 
6 | Cc1cc(-c2cc3c(=O)cc[nH]c3nc2-c2ccccc2)cc(Cl)c1NS(C)(=O)=O [Compound 45, N-(2-chloro-6-methyl-4-(5-oxo-2-phenyl-5,8-dihydro-1,8-naphthyridin-3-yl)phenyl)methanesulfonamide] |  | 34 |  | > 10000 |  | 
7 | Cc1c(C#N)cccc1-c1nc2[nH]ccc(=O)c2cc1-c1ccc2ncccc2c1 [Compound 55, 2-methyl-3-(5-oxo-3-(quinolin-6-yl)-5,8-dihydro-1,8-naphthyridin-2-yl)benzonitrile] | 179 | 5 |  |  |  | 
8 | N#Cc1cccc(-c2nc3[nH]ccc(=O)c3cc2-c2ccc3[nH]cnc3c2)c1 [Compound 80, 3-(3-(1H-benzo[d]imidazol-5-yl)-5-oxo-5,8-dihydro-1,8-naphthyridin-2-yl)benzonitrile] | 17 | 79 |  |  |  | 
9 | N#Cc1cccc(-c2nc3[nH]ccc(=O)c3cc2-c2ccc3[nH]ncc3c2)c1 [Compound 78, 3-(3-(1H-indazol-5-yl)-5-oxo-5,8-dihydro-1,8-naphthyridin-2-yl)benzonitrile] | 49 | 81 |  |  |  | 
10 | N#Cc1cccc(-c2nc3[nH]ccc(=O)c3cc2-c2ccc3ncsc3c2)c1 [Compound 79, 3-(3-(benzo[d]thiazol-6-yl)-5-oxo-5,8-dihydro-1,8-naphthyridin-2-yl)benzonitrile] | 9.5 | 85 |  |  |  | 
11 | N#Cc1cccc(-c2nc3[nH]ccc(=O)c3cc2-c2ccc3ncccc3c2)c1 [Compound 77, 3-(5-oxo-3-(quinolin-6-yl)-5,8-dihydro-1,8-naphthyridin-2-yl)benzonitrile] | 5.4 | 61 |  | 213 |  | 
12 | Cc1cc(-c2cc3c(=O)cc[nH]c3nc2-c2cccc(C#N)c2C)cc(Cl)n1 [Compound 3, 3-(3-(2-chloro-6-methylpyridin-4-yl)-5-oxo-5,8-dihydro-1,8-naphthyridin-2-yl)-2-methylbenzonitrile] | 2600 | 7 |  |  |  | 
